Assay results from patent US10894048B2, “Antitumor drug for intermittent administration of FGFR inhibitor” (priority 2013, dated 2021).

How the values were obtained:
[1] = tested on: Human-derived gastric cancer OCUM-2MD3 cells; settings: OCUM-2MD3, 72 h
[2] = target: purified recombinant human FGFR2 protein (Homo sapiens (Human), UniProt P21802); assay: Inhibitory effect on FGFR2 kinase activity; assay type: biochemical; settings: ATP 75 μM
purified recombinant human FGFR2 protein, sequence (P21802 22-821): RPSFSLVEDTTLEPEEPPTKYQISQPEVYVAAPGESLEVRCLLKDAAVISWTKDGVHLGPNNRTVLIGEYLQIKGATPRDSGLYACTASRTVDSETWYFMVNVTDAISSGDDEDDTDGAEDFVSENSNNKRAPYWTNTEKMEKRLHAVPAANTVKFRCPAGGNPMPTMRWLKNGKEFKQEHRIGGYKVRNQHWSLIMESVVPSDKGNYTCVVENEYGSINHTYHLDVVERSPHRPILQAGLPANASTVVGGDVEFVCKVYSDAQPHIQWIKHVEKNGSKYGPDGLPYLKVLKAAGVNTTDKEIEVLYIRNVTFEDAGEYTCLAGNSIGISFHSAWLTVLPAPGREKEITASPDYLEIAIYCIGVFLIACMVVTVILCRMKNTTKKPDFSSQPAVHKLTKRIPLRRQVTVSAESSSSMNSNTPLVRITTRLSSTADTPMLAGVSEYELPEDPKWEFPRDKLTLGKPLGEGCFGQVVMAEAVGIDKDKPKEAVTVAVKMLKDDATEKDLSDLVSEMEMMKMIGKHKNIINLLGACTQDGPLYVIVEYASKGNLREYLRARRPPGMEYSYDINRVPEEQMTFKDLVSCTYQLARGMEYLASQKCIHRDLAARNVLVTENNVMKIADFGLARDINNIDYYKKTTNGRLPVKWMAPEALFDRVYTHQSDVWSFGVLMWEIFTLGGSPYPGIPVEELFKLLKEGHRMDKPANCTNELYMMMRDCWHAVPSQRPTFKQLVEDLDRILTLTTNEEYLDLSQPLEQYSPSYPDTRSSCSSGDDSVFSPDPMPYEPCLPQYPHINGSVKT

GI50 [1] [µM]	IC50 [2] [µM]	Structure (SMILES)
< 0.0046	–	C=CC(=O)N1C[C@@H](n2cc(C#Cc3cc(OC)cc(OC)c3)c3c(N)ncnc32)C[C@H]1C(=O)OC [Ex. Compound 66, (2S,4S)-methyl 1-acryloyl-4-(4-amino-5-((3,5-dimethoxyphenyl)ethynyl)-7H-pyrrolo[2,3-d]pyrimidin-7-yl)pyrrolidine-2-carboxylate]
–	> 10	CC(C)c1cc(C#Cc2nn([C@H]3CCN(C(=O)/C=C/CN(C)C)C3)c3ncnc(N)c23)cc(C(C)C)c1 [Ref. Ex. Compound 4, (S)-1-(3-(4-amino-3-((3,5-diisopropylphenyl)ethynyl)-1H-pyrazolo[3,4-d]pyrimidin-1-yl)pyrrolidin-1-yl)-4-(dimethylamino)but-2-en-1-one]
